Data published in the NIST ThermoML archive (doi:10.1021/je1003065).

Experiment: mn = molality of the nth substance listed, in mol/kg
Settings: Liquid, Vibrating tube method

[Br-].[Li+] [lithium bromide] + CCO
Settings	mass density [kg/m3]
348.15 K, 5002 kPa, m1 = 0.2335	761.71
348.15 K, 5002 kPa, m1 = 1.462	838.72
348.15 K, 5004 kPa, m1 = 0.9499	807.6
348.15 K, 5004 kPa, m1 = 2.272	885.02
348.15 K, 5012 kPa, m1 = 2.833	915.98
348.15 K, 5024 kPa, m1 = 3.368	943.65
348.15 K, 5412 kPa, m1 = 0.5972	785.83
348.15 K, 10064 kPa, m1 = 0.9499	812.44
348.15 K, 19957 kPa, m1 = 2.833	928.46
348.15 K, 19985 kPa, m1 = 0.2335	776.82
348.15 K, 19985 kPa, m1 = 0.9499	821.56
348.15 K, 20024 kPa, m1 = 1.462	852.51
348.15 K, 29942 kPa, m1 = 0.9499	830.19
348.15 K, 29985 kPa, m1 = 3.368	963.31
348.15 K, 39784 kPa, m1 = 0.9499	838.22
348.15 K, 39945 kPa, m1 = 0.5972	816.93
348.15 K, 39947 kPa, m1 = 0.2335	794.15
348.15 K, 39957 kPa, m1 = 2.833	943.19
348.15 K, 39978 kPa, m1 = 3.368	970.26
348.15 K, 40002 kPa, m1 = 1.462	868.51
348.15 K, 49921 kPa, m1 = 2.272	920.25
348.15 K, 49926 kPa, m1 = 2.833	949.82
348.15 K, 49927 kPa, m1 = 0.9499	845.97
348.15 K, 59947 kPa, m1 = 0.2335	809.42
348.15 K, 59956 kPa, m1 = 0.5972	831.96
348.15 K, 59986 kPa, m1 = 1.462	882.36
348.15 K, 60002 kPa, m1 = 0.9499	853.14
348.15 K, 60024 kPa, m1 = 3.368	982.97
348.15 K, 69784 kPa, m1 = 0.9499	859.6
348.15 K, 69784 kPa, m1 = 2.272	932.62
348.15 K, 70024 kPa, m1 = 2.833	962.07
348.15 K, 79325 kPa, m1 = 0.9499	865.42
348.15 K, 79924 kPa, m1 = 3.368	994.3
348.15 K, 79956 kPa, m1 = 1.462	894.65
348.15 K, 80004 kPa, m1 = 0.2335	822.02
348.15 K, 80021 kPa, m1 = 0.5972	844.82
348.15 K, 89923 kPa, m1 = 3.368	999.65
348.15 K, 89926 kPa, m1 = 0.2335	827.8
348.15 K, 89931 kPa, m1 = 2.272	944.08
348.15 K, 89932 kPa, m1 = 1.462	900.39
348.15 K, 89935 kPa, m1 = 0.9499	871.34
348.15 K, 89954 kPa, m1 = 2.833	973.13
348.15 K, 99845 kPa, m1 = 1.462	905.92
348.15 K, 99934 kPa, m1 = 3.368	1004.87
348.15 K, 99935 kPa, m1 = 0.9499	876.39
348.15 K, 99945 kPa, m1 = 2.272	949.54
348.15 K, 99957 kPa, m1 = 0.2335	833.35
348.15 K, 99968 kPa, m1 = 2.833	978.42
348.15 K, 99985 kPa, m1 = 0.5972	855.43
348.16 K, 10021 kPa, m1 = 2.272	890.16
348.16 K, 10032 kPa, m1 = 3.368	947.88
348.16 K, 10034 kPa, m1 = 1.462	843.52
348.16 K, 19902 kPa, m1 = 0.5972	799.98
348.16 K, 29784 kPa, m1 = 2.272	906.12
348.16 K, 30024 kPa, m1 = 2.833	936.13
348.16 K, 49923 kPa, m1 = 0.2335	802.07
348.16 K, 49952 kPa, m1 = 3.368	976.77
348.16 K, 59932 kPa, m1 = 2.272	926.65
348.16 K, 69784 kPa, m1 = 1.462	888.55
348.16 K, 70013 kPa, m1 = 0.5972	838.69
348.16 K, 79926 kPa, m1 = 2.833	967.67
348.17 K, 50201 kPa, m1 = 1.462	875.81
348.17 K, 69845 kPa, m1 = 0.2335	816.09
353.09 K, 80053 kPa, m1 = 1.462	891.89
353.1 K, 9980 kPa, m1 = 1.462	839.5
353.1 K, 19703 kPa, m1 = 1.462	848.5
353.1 K, 29947 kPa, m1 = 1.462	857.25
353.1 K, 39836 kPa, m1 = 1.462	865.06
353.1 K, 49993 kPa, m1 = 1.462	872.5
353.1 K, 60279 kPa, m1 = 1.462	879.53
353.1 K, 69928 kPa, m1 = 1.462	885.72
353.1 K, 89979 kPa, m1 = 1.462	897.68
353.1 K, 99915 kPa, m1 = 1.462	903.29
353.11 K, 5043 kPa, m1 = 1.462	834.64
353.13 K, 1217 kPa, m1 = 1.462	830.74
353.13 K, 5143 kPa, m1 = 0.5972	781.1
353.13 K, 10028 kPa, m1 = 2.272	886.04
353.13 K, 20124 kPa, m1 = 2.272	895.23
353.13 K, 29947 kPa, m1 = 2.272	902.89
353.13 K, 89945 kPa, m1 = 0.2335	824.73
353.13 K, 99992 kPa, m1 = 2.272	946.74
353.14 K, 9986 kPa, m1 = 2.833	916.2
353.14 K, 19985 kPa, m1 = 0.2335	772.17
353.14 K, 20259 kPa, m1 = 0.5972	796.52
353.14 K, 29993 kPa, m1 = 0.5972	804.77
353.14 K, 39486 kPa, m1 = 2.272	909.8
353.14 K, 49965 kPa, m1 = 2.833	946.54
353.14 K, 49994 kPa, m1 = 2.272	916.93
353.14 K, 60014 kPa, m1 = 2.272	924.01
353.14 K, 69979 kPa, m1 = 2.272	929.91
353.14 K, 80071 kPa, m1 = 2.272	936.01
353.14 K, 89925 kPa, m1 = 2.833	970.1
353.14 K, 89993 kPa, m1 = 2.272	941.4
353.15 K, 1023 kPa, m1 = 0.2335	752.56
353.15 K, 1302 kPa, m1 = 2.833	908.32
353.15 K, 1405 kPa, m1 = 0.9499	799.45
353.15 K, 5002 kPa, m1 = 0.2335	756.87
353.15 K, 5015 kPa, m1 = 2.833	911.75
353.15 K, 5074 kPa, m1 = 0.9499	803.32
353.15 K, 9985 kPa, m1 = 0.9499	808.32
353.15 K, 10021 kPa, m1 = 0.2335	762.65
353.15 K, 19924 kPa, m1 = 0.9499	817.86
353.15 K, 19927 kPa, m1 = 2.833	924.6
353.15 K, 29784 kPa, m1 = 0.9499	826.6
353.15 K, 29974 kPa, m1 = 0.2335	781.57
